Reference: ChEMBL document CHEMBL5126547, “Inhibition of the drug efflux activity of Ptch1 as a promising strategy to overcome chemotherapy resistance in cancer cells” (Eur J Med Chem, 2022)

Tests used:
[1] = molecular target: T1, Protein patched homolog 1 (Homo sapiens) (UniProt Q13635); experiment: Inhibition of Ptch1 in human adrenocortical carcinoma cells assessed as fold increase doxorubicin cytotoxicity; type: cell-based; conditions: Adrenocortical carcinoma cell
T1 sequence (whole entry): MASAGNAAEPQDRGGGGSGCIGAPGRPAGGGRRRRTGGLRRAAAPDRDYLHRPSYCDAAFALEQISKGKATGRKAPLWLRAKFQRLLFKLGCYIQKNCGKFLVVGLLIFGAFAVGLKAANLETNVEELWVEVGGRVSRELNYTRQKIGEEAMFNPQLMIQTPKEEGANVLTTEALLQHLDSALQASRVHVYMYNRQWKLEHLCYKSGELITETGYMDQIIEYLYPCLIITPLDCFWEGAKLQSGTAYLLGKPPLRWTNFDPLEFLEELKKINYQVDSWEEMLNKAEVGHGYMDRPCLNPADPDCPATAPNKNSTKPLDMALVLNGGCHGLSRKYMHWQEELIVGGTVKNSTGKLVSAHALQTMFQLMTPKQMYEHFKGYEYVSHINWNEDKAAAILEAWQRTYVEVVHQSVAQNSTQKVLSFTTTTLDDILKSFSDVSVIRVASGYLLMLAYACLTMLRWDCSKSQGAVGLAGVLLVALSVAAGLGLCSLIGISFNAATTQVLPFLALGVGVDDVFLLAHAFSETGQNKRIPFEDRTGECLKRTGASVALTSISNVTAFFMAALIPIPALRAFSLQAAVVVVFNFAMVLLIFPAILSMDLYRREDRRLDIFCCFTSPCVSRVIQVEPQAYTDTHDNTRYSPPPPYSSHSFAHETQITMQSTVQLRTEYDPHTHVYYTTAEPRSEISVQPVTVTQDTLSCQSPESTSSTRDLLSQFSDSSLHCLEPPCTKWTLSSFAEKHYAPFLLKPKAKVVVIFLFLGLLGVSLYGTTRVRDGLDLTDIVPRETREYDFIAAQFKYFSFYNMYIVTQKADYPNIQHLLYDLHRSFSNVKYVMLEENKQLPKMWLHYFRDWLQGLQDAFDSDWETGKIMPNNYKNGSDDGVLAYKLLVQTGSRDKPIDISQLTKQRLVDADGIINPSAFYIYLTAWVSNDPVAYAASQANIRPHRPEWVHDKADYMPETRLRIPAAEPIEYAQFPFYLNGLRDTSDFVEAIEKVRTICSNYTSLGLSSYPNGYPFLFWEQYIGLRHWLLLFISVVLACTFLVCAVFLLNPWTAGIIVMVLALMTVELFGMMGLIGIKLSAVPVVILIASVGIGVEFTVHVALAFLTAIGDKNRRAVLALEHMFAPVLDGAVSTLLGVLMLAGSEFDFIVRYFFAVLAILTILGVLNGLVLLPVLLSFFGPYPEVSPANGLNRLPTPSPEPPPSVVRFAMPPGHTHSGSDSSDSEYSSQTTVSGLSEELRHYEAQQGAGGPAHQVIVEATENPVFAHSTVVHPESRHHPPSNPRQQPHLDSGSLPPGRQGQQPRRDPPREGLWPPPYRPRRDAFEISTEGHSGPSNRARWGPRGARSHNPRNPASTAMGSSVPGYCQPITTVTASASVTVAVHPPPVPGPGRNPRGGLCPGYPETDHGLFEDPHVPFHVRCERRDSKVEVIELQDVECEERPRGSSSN

[2] = Metabolic stability in rat liver microsomes assessed as half life; type: ADME, Microsome
[3] = Lipophilicity, logD of compound; type: physicochemical; conditions: octanol/water
[4] = In vivo inhibition of Ptch1 in vemurafenib-resistant human A-375 BRAF V600E cells xenografted in Nu/Nu NMRI mouse assessed as fold increase in vemurafenib anticancer activity at 5 mg/kg, ip administered 5 days a week measured on after 23 days of first treatment relative to control; type: functional; conditions: time 5 day
[5] = Inhibition of Ptch1 in vemurafenib-resistant human A-375 BRAF V600E cells assessed as fold increase in doxorubicin cytotoxicity
[6] = molecular target: T1, Protein patched homolog 1 (Homo sapiens); experiment: Inhibition of Ptch1 in human Melanoma cells assessed as fold increase doxorubicin cytotoxicity; type: cell-based; conditions: Melanoma cell
[7] = molecular target: T1, Protein patched homolog 1 (Homo sapiens); experiment: Inhibition of Ptch1 in human Melanoma cells assessed as fold increase cisplatin cytotoxicity; type: cell-based; conditions: Melanoma cell
[8] = molecular target: T1, Protein patched homolog 1 (Homo sapiens); experiment: Inhibition of Ptch1 in human Melanoma cells assessed as fold increase vemurafenib cytotoxicity; type: cell-based; conditions: Melanoma cell
[9] = Inhibition of Ptch1 in vemurafenib-resistant human A-375 BRAF V600E cells assessed as fold increase in cisplatin cytotoxicity

| SMILES | fold change (FC) [1] | half-life [2] [min] | logD [3] | fold change (FC) [4] | fold change (FC) [5] | fold change (FC) [6] | fold change (FC) [7] | fold change (FC) [8] | fold change (FC) [9] |
| --- | --- | --- | --- | --- | --- | --- | --- | --- | --- |
| COc1ccc(CCN2CCC(Nc3nc4ccccc4n3Cc3ccc(F)cc3)CC2)cc1 [ASTEMIZOLE] | 10 | > 60 | 2.9 |  |  |  |  |  |  |
| COc1cc(C)c(CC/C(C)=C/Cc2cc(O)ccc2O)c(C)c1C [PANICEIN A HYDROQUINONE] | 128 | 1 |  | 10 | 68 |  |  |  |  |
| CSc1ccc2c(c1)C(N1CCN(C)CC1)Cc1ccccc1S2 (stereo unspecified) [METITEPINE] | 6.6 | 31 | 3.5 | 10 | 15 | 5.8 | 3 | 4 | 3.6 |
